According to patent publication US10513519B2, “Solid forms of (1S,4S)-4-(2-(((3S,4R)-3-fluorotetrahydro-2H-pyran-4-yl)amino)-8-((2,4,6-trichlorophenyl)amino)-9H-purin-9-yl)-1-methylcyclohexane-1-carboxamide and methods of their use” (Signal Pharmaceuticals, LLC, priority 2016, dated 2019):

Tested on: cancer cell lines
Test: Multiplexed cytotoxicity assay: cell proliferation (relative cell count IC50, GI50)
Type: cell-based
Conditions: Homo sapiens
Method: (§1) Cells are grown in RPMI1640, 10% FBS, 2 mM L-alanyl-L-Glutamine, 1 mM Na pyruvate or a special medium in a humidified atmosphere of 5% CO2 at 37° C. Cells are seeded into 384-well plates and incubated in a humidified atmosphere of 5% CO2 at 37° C. Compounds are added 24 h post cell seeding. At the same time, a time zero untreated cell plate is generated. After a 72 hour incubation period, cells are fixed and stained with fluorescently labeled antibodies and nuclear dye to allow visualization of nuclei, apoptotic cells and mitotic cells. Apoptotic cells are detected using an anti-active caspase-3 antibody. Mitotic cells are detected using an anti phospho-histone-3 antibody. Compounds are serially diluted 3.16-fold and assayed over 10 concentrations in a final assay concentration of 0.1% DMSO from the highest test concentration of 10 μM. Automated fluorescence microscopy was carried out using a Molecular Devices ImageXpress Micro XL high-content imager, and images are collected with a 4× objective.
(§2) Sixteen-bit TIFF images are acquired and analyzed with MetaXpress 5.1.0.41 software. Cell proliferation is measured by the signal intensity of the incorporated nuclear dye. The cell proliferation assay output is referred to as the relative cell count. To determine the cell proliferation end point, the cell proliferation data output is transformed to percentage of control (POC) using the following formula: POC=relative cell count(compound wells)/relative cell count(vehicle wells)×100
(§3) GI50 is the concentration needed to reduce the observed growth by half. This is the concentration that inhibits the growth to the level midway between growth in untreated cells and the number of cells seeded in the well (Time zero value). The IC50 values are calculated using nonlinear regression to fit data to a sigmoidal 4 point, 4 parameter One-Site dose response model, where: y(fit)=A+[(B−A)/(1+((C/x)^D))].
as §1, with “In another experiment, cells were grown” for “Cells are grown”, “Cells were” for “Cells are”, “Compounds were” for “Compounds are”, “plate was” for “plate is”, “cells were” for “cells are”, “images were” for “images are”
as §2, with “images were” for “images are”, “proliferation was” for “proliferation is”, “output was” for “output is”
as §3, with “GI50 refers to” for “GI50 is”, “This corresponds to” for “This is”, “values were” for “values are”

[1] = JIYOYE, JIYOYE (Hematopoietic and lymphoid, Lymphoma)
[2] = JeKo-1, JEKO1 (Hematopoietic and lymphoid, Lymphoma)
[3] = Jurkat, JURKAT (Hematopoietic and lymphoid, Leukemia)
[4] = K562, K562 (Hematopoietic and lymphoid, Leukemia)
[5] = KATO III, 72 h, KATOIII, Stomach
[6] = KU812, KU812 (Hematopoietic and lymphoid, Leukemia)
[7] = L-428, L428 (Hematopoietic and lymphoid, Lymphoma)
[8] = MC116, MC116 (Hematopoietic and lymphoid, Lymphoma)
[9] = MC-IXC, 72 h, MCIXC, CNS, Neuroblastoma
[10] = ME-180, 72 h, ME180, Female GU, Ovary, 72 h
[11] = MEG-01, MEG01 (Hematopoietic and lymphoid, Leukemia)
[12] = MES-SA, 72 h, MESSA, Soft Tissue, Sarcoma
[13] = MG-63, 72 h, MG63, Soft Tissue, Osteosarcoma, 72 h
[14] = MHH-PREB-1, MHHPREB1 (Hematopoietic and lymphoid, Leukemia)
[15] = MIA PaCa-2, 72 h, MIAPACA2, Pancreas, 72 h
[16] = MOLT-3, MOLT3 (Hematopoietic and lymphoid, Leukemia)
[17] = MOLT-16, MOLT16 (Hematopoietic and lymphoid, Leukemia)
[18] = MV4-11, MV411 (Hematopoietic and lymphoid, Leukemia)
[19] = Malme-3M, MALME3M (Skin, Melanoma)
[20] = NALM-6, NALM6 (Hematopoietic and lymphoid, Leukemia)
[21] = NCI-H69, 72 h, NCIH69, Lung, SCLC, 72 h
[22] = NCI-H292, 72 h, NCIH292, Lung, NSCLC, 72 h
[23] = NCI-H295R, NCIH295R (Endocrine, Adrenal gland)

`C[C@]1(C(N)=O)CC[C@@H](n2c(Nc3c(Cl)cc(Cl)cc3Cl)nc3cnc(N[C@@H]4CCOC[C@H]4F)nc32)CC1` [Compound 1, cis-4-[2-{[(3S,4R)-3-fluorooxan-4-yl]amino}-8-(2,4,6-trichloroanilino)-9H-purin-9-yl]-1-methylcyclohexane-1-carboxamide] gave a GI50 [1] of 81.4 nM, an IC50 [1] of 210 nM and a GI50 [2] of 461 nM. The IC50 [2] was 830 nM, the GI50 [3] was 3340 nM and the IC50 [3] was 3730 nM. It also gave a GI50 [4] greater than 10000 nM, an IC50 [4] greater than 10000 nM and a GI50 [5] of 61.2 nM. It also gave an IC50 [5] of 78.7 nM, a GI50 [6] of 3 nM and an IC50 [6] of 15.9 nM. It also gave a GI50 [7] of 1630 nM, an IC50 [7] of 3460 nM and a GI50 (LNCaP, 72 h, Prostate) of 2430 nM. It also gave an IC50 (LNCaP, 72 h, Prostate) of 5070 nM, a GI50 (LS174T, LS174T (Colon)) of 194 nM and an IC50 (LS174T, LS174T (Colon)) of 259 nM. For the same molecule, the GI50 (LS-123, LS123 (Colon)) was 61 nM, the IC50 (LS-123, LS123 (Colon)) was 188 nM and the GI50 (LS-411N, LS411N (Colon)) was 35.8 nM. The IC50 (LS-411N, LS411N (Colon)) was 53 nM, the GI50 (LS-513, LS513 (Colon)) was 35.3 nM and the IC50 (LS-513, LS513 (Colon)) was 38.6 nM. For the same molecule, the GI50 (LS-1034, LS1034 (Colon)) was 224 nM, the IC50 (LS-1034, LS1034 (Colon)) was 676 nM and the GI50 (M059J, M059J (CNS, Glioma)) was 612 nM. It also gave an IC50 (M059J, M059J (CNS, Glioma)) of 3310 nM, a GI50 [8] of 6020 nM and an IC50 [8] of 6490 nM. The GI50 [9] was 2040 nM, the IC50 [9] was 2330 nM and the GI50 (MCF7, MCF7 (Breast)) was 636 nM. It also gave an IC50 (MCF7, MCF7 (Breast)) of 3470 nM, a GI50 (MDA-MB-231, MDAMB231 (Breast)) of 33.9 nM and an IC50 (MDA-MB-231, MDAMB231 (Breast)) of 62.4 nM. The GI50 (MDA-MB-415, MDAMB415 (Breast)) was 729 nM, the IC50 (MDA-MB-415, MDAMB415 (Breast)) was greater than 10000 nM and the GI50 (MDA-MB-436, MDAMB436 (Breast)) was 262 nM. The IC50 (MDA-MB-436, MDAMB436 (Breast)) was greater than 10000 nM, the GI50 (MDA-MB-453, MDAMB453 (Breast)) was 656 nM and the IC50 (MDA-MB-453, MDAMB453 (Breast)) was 2820 nM. It also gave a GI50 (MDA-MB-468, MDAMB468 (Breast)) of 36.3 nM, an IC50 (MDA-MB-468, MDAMB468 (Breast)) of 72.1 nM and a GI50 [10] greater than 10000 nM. For the same molecule, the IC50 [10] was greater than 10000 nM, the GI50 [11] was 81.8 nM and the IC50 [11] was 221 nM. It also gave a GI50 [12] of 810 nM, an IC50 [12] of 1100 nM and a GI50 [13] of 108 nM. It also gave an IC50 [13] of 115 nM, a GI50 [14] of 6690 nM and an IC50 [14] of 6970 nM. The GI50 [15] was 35.7 nM, the IC50 [15] was 39.6 nM and the GI50 [16] was 946 nM. For the same molecule, the IC50 [16] was 3030 nM, the GI50 [17] was 2880 nM and the IC50 [17] was 3350 nM. For the same molecule, the GI50 [18] was 107 nM, the IC50 [18] was 184 nM and the GI50 [19] was 3.4 nM. For the same molecule, the IC50 [19] was 12 nM, the GI50 (MeWo, MEWO (Skin, Melanoma)) was 102 nM and the IC50 (MeWo, MEWO (Skin, Melanoma)) was 159 nM. The GI50 [20] was greater than 10000 nM, the IC50 [20] was greater than 10000 nM and the GI50 [21] was 5000 nM. The IC50 [21] was greater than 10000 nM, the GI50 [22] was 278 nM and the IC50 [22] was 686 nM. It also gave a GI50 [23] greater than 10000 nM, an IC50 [23] greater than 10000 nM and a GI50 (NCI-H441, 72 h, NCIH441, Lung, NSCLC, 72 h) of 271 nM.
